Experimental data published in publication PMC11395145, “The Archetypal Gamma-Core Motif of Antimicrobial Cys-Rich Peptides Inhibits H^+-ATPases in Target Pathogens” (International Journal of Molecular Sciences, 2024).

Tests used:
[1] = target: Pma1p H^+-ATPase (Candida albicans, UniProt P28877); conditions: starved C. albicans 10^7 cells/mL in 50 mM KCl, pre-incubated with peptide 2 × IC50, 2.5 mM glucose; control ~1.3 pH units
Description: C. albicans cells (10^7 cells/mL) in 50 mM KCl were preincubated with the peptides (2 × IC50) for 20 min. Glucose (final concentration of 2.5 mM) was then added to induce H^+ efflux via Pma1p H^+-ATPase, as indicated by the subsequent external acidification.
To measure the proton pumping activity of Pma1p H^+-ATPase, a glucose-induced acidification assay of the medium was performed as previously described [10]. Briefly, cultures of C. albicans cells were grown to the mid-log phase in SDB medium and washed twice in Tris buffer (pH 8.0). The cells were resuspended in 50 mM KCl and maintained for 18 h at 4 °C to reduce metabolic activity to a minimum (starvation conditions). To determine the external acidification, starved cells (~10^7 cells/mL) were incubated for 15 min at 30 °C in the absence or the presence of the peptides (2 × IC50). Human lactoferrin (20 μM) was used as a positive control. The initial pH of cellular suspension was adjusted with HCl to pH 6.6 (approx.) and glucose was immediately added (final concentration, 2.5 mM) to the cellular suspension. The pH of the medium was recorded at 1 min intervals for 20 min using a SevenMulti S50-K pH meter (Mettler-Toledo, Greifensee, Switzerland) with a calibrated electrode (InLab 413, Mettler-Toledo) with constant stirring. Every experiment was performed using two replicates and repeated independently three times.

[2] = system: C. albicans cells; test: Oxygen consumption measurement (Clark-type electrode); assay type: cell-based, Candida albicans; conditions: 5 × 10^6 cells/mL, peptides at IC50, piericidin A 32 μM, at least 30 min, 25 °C
Description: (§1) Figure 3 Effect of cellular respiration on the microbicidal activity of hLf γ-core-containing peptides. (A,C) Oxygen consumption was measured in C. albicans and P. aeruginosa cellular suspensions in the absence (control) or the presence of kaliocin-1 (Kal-1), Kdp15, or human lactoferrin (hLf), and piericidin A (positive control). (B,D) Effect of cellular respiration on the microbicidal activity of hLf γ-core-containing peptides. Cells (10^6 cells/mL) were pre-incubated (15 min, 37 °C) with 32 μM piericidin A and incubated for 90 min at 37 °C with the peptides hLf or BM2. The cell viability was determined by means of the plate counting method. The results are the mean ± SD from duplicates of at least three independent experiments. * p < 0.05, ** p < 0.01, and *** p < 0.001 were used.
(§2) C. albicans or P. aeruginosa cells were grown to the mid-logarithmic phase, washed twice in Tris buffer, and resuspended in the same buffer, as described in [9, 10]. Briefly, cells (5 × 10^6 cells/mL) were pre-incubated for 15 min at 37 °C with the peptides (IC50). […] Oxygen consumption was measured using a Clark-type oxygen electrode (Dual digital-model 20, Rank Brothers Ltd., Cambridge, UK) in a closed jacketed chamber maintained at 25 °C. […] The viability of the cells was determined at 30 min by removing aliquots from the oxygen chambers and plating the subsequent dilutions on SDA or TSA plates.

[3] = system: C. albicans cells; test: Cell membrane permeability assay (propidium iodide, flow cytometry); assay type: cell-based, Candida albicans; conditions: 90 min, 37 °C, range of concentrations, PI 9 μM
Description: (§3) To determine whether Kal-1 and Kdp15 exert a permeabilizing effect on fungal or bacterial membranes, the cellular influx of the fluorescent nucleic-acid-binding dye propidium iodide (PI) was assessed. As PI itself cannot permeate through an intact phospholipid bilayer, only permeabilized cells take up PI, resulting in DNA intercalation and fluorescence.
(§4) Flow cytometry was used to assess the ability of peptides to permeabilize plasma membranes of cells in incorporation of the DNA intercalating dye propidium iodide (PI). C. albicans or P. aeruginosa cells (10^6 cells/mL) in Tris buffer were incubated with two-fold serially diluted peptides for 90 min at 37 °C and subsequently reincubated with PI (9 μM, final concentration) for 5 min. The suspensions were centrifuged at 1100× g for 10 min and subsequently washed with Tris buffer to remove any unbound PI. The peptide Lfpep was used to disrupt the cytoplasmic membrane (positive control). Cell fluorescence was monitored using a Cytomics FC500 Flow Cytometer (Beckman Coulter Life Sciences, Indianapolis, IN, USA). The PI fluorescence was excited at a wavelength of 488 nm and emission was registered at 610 nm. For each treatment, 20,000 events were measured. Data were acquired and analyzed using CytExpert 2.1 software. Results were expressed as the percentage of PI-positive cells with respect to the unstained cells (control). […]

[4] = system: P. aeruginosa cells; test: Oxygen consumption measurement (Clark-type electrode); assay type: cell-based, Pseudomonas aeruginosa; conditions: 5 × 10^6 cells/mL, peptides at IC50, piericidin A 32 μM, at least 30 min, 25 °C
Description: as §1, §2

[5] = system: C. albicans cells; test: Measurement of intracellular ATP (BacTiter-Glo); assay type: cell-based, Candida albicans; conditions: C. albicans 10^6 cells/mL, candidacidal concentration, 90 min, 37 °C; BM2 0.25 μM
Description: Total ATP was measured by using the BacTiter-Glo^TM Microbial Cell Viability Assay (Promega Co., Madison, WI, USA) according to the manufacturer’s instructions. […] Aliquots (100 μL) were incubated (90 min at 37 °C) with kaliocin-1, Kdp15, or human lactoferrin and the BM2 peptide (positive control). One hundred microliters of incubation mix was transferred into a 96-well opaque white plate, mixed with an equal volume of the BacTiter-Glo reagent, and incubated for 15 min in the dark. The reagent used a thermostable luciferase to produce luminescence in an ATP-dependent manner. The emitted luminescence was detected by using a Varioskan Flash multimode reader (Thermo Scientific, Waltham, MA, USA) with a 10 s of shaking and 1 s integration time. A calibration curve was prepared for each experiment, with ATP standards ranging from 1 to 1000 nM. For assays performed in the presence of the BM2 peptide, samples were preincubated with 0.25 μM BM2 for 30 min at 37 °C. All the tests were performed in triplicate at least four times.

[6] = system: P. aeruginosa cells; test: Cell membrane permeability assay (propidium iodide, flow cytometry); assay type: cell-based, Pseudomonas aeruginosa; conditions: 90 min, 37 °C, range of concentrations, PI 9 μM
Description: as §3, §4

[7] = system: Candida albicans ATCC 10231; test: Microbicidal (spread-plate cell viability) assay, candidacidal activity; assay type: cell-based; conditions: for IC50: 90 min, 37 °C, 10 mM Tris-HCl pH 7.4, 10^6 cells/mL, CFU plating, estimated, read-out: IC50 (concentration that caused 50% reduction in viable counts) against C. albicans; for effect of high external K^+ on candidacidal activity: Tris buffer with 50 mM KCl vs without
Description: (§5) First, we tested the antimicrobial activity of Kal-1 and a shorter Kal-1-derived peptide (Kdp15), both containing the complete γ-core signature of human lactoferrin, against C. albicans and P. aeruginosa. Microbicidal (cidal) activity was determined after 90 min of incubation (37 °C; pH 7.4) with a range of concentrations of each hLf-derived peptide.
(§6) Figure 1 Cell viability and membrane permeabilization assays. C. albicans or P. aeruginosa (10^6 cells/mL) were incubated (90 min, 37 °C) with each peptide/protein at the indicated concentrations. Aliquots were plated on SDA or […], and colonies were counted after 24–48 h (C. albicans) or 24 h (P. aeruginosa). At each point, samples were stained with propidium iodide (PI) and intracellular PI incorporation, indicative of membrane permeabilization, was quantified by flow cytometry. The relative cell viability (blue lines) and cellular permeabilization (red lines) were calculated as the percentage of untreated cells. Human lactoferrin (hLf) and the peptide Lfpep were used as negative and positive controls of cellular permeabilization, respectively.
(§7) Microbial susceptibility to the peptides was determined in a spread-plate assay as described previously. Briefly, two-fold serially diluted peptides were incubated (37 °C) with approximately 10^6 cells/mL in Tris buffer (10 mM Tris-HCl, pH 7.4). After 90 min of incubation with the peptides, aliquots were removed and plated in duplicate on an appropriate agar plate for each species (SDA for C. albicans, TSA for P. aeruginosa). The plates were incubated for 24–48 h at 30 °C (C. albicans) or 24 h at 37 °C (P. aeruginosa) for enumeration. The cell viability values, expressed as colony forming units (CFUs), were determined relative to incubation without added peptides and represent the mean ± standard deviation (±SD) of at least three independent determinations. For inhibition assays, the cell suspensions were preincubated (15 min at 37 °C) with the corresponding inhibitors before the addition of peptides. Water-insoluble inhibitors were prepared in DMSO, such that the final assay volume was ≤1%. Other specific experimental inhibition conditions are described where appropriate. The IC50 value is expressed as the concentration that caused 50% reduction in viable counts.

[8] = system: Pseudomonas aeruginosa 10145 (PAO1); test: Microbicidal (spread-plate cell viability) assay, pseudomonacidal activity; assay type: cell-based; conditions: for IC50: 90 min, 37 °C, 10 mM Tris-HCl pH 7.4, 10^6 cells/mL, CFU plating, read-out: IC50 (concentration that caused 50% reduction in viable counts) against P. aeruginosa; for effect of high external K^+ on pseudomonacidal activity: Tris buffer with 50 mM KCl vs without
Description: as §5, §6, §7

[9] = system: C. albicans cells; test: Extracellular potassium measurement (K+ efflux, ICP-OES); assay type: cell-based, Candida albicans; conditions: 10^7 cells/mL, peptides 2 × IC50, 37 °C
Description: (§8) Figure 2 Potassium efflux induced by hLf γ-core-containing peptides. (A,D) Kinetics of K^+ efflux. C. albicans or P. aeruginosa (10^7 cells/mL) were incubated with kaliocin-1, Kdp15, human lactoferrin (hLf), and Lfpep. hLf and Lfpep were used as negative and positive controls of the membrane permeabilization, respectively. The effect of antifungal BM2 peptide was evaluated. The extracellular K^+ concentration was quantified at different times. (B,C,E) Effect of extracellular K^+ and TEA^+ on microbicidal activity. (B,E) microbicidal activity was assessed in Tris buffer in the absence or in the presence of 50 mM KCl or (C) 10 mM TEA^+. Cell viability was determined by plating aliquots of the cell suspensions. The percentage of viable cells was determined relative to that for cells incubated without peptides (control). […]
(§9) Measurements of potassium were performed using inductively coupled plasma optical emission spectrometry (ICP-OES) with a Perkin-Elmer Optima 2000 DV spectrometer. […] The percentage of cytosolic K^+ released from cell suspensions treated with Lfpep was determined in positive control assays. The total cellular K^+ content (100% value) was measured in the supernatant of cellular suspensions previously treated only with 0.5% (v/v) HClO4, heated for 1 h at 95 °C, and centrifuged to remove cell debris. […]

[10] = system: P. aeruginosa cells; test: as above; assay type: cell-based, Pseudomonas aeruginosa; conditions: 10^7 cells/mL, peptides 2 × IC50, 37 °C
Description: as §8, §9

[11] = system: Candida albicans ATCC 10231; conditions: used in control assays; cited from earlier work
Description: as §5, with “peptide. The hLf γ-core-containing peptides were microbicidal in a concentration-dependent way (Figure 1). […] The IC50 es ...” for “peptide.”

[12] = cells pre-incubated 15 min, 37 °C with 32 μM piericidin A, then 90 min with peptide

Sequence of Pma1p H^+-ATPase (P28877 whole entry): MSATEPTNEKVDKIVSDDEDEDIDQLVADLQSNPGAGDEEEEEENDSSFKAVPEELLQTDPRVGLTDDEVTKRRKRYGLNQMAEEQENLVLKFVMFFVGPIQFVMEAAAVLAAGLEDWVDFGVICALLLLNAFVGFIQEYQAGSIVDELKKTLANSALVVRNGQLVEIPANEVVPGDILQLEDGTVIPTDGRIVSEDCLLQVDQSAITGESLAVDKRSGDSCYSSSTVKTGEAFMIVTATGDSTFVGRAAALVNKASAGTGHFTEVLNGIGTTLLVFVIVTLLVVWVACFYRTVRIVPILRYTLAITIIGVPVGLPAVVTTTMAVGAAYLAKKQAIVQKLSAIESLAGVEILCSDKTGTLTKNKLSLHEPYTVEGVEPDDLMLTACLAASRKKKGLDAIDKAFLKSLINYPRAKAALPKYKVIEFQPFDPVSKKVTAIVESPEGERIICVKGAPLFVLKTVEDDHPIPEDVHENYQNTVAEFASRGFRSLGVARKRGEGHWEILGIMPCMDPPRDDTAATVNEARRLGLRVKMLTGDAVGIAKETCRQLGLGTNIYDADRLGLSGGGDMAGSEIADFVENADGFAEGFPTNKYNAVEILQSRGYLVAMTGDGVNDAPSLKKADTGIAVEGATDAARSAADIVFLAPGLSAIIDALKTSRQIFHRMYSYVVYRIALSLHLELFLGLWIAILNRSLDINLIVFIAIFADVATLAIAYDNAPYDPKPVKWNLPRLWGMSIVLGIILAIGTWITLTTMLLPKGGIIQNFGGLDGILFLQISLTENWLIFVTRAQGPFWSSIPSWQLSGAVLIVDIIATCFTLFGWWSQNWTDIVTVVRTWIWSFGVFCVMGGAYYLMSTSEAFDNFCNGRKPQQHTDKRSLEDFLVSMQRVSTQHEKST

Sequence | decrease of external pH after 20 min (glucose-induced acidification) [1] | oxygen consumption of C. albicans in presence of the substance [2] | PI fluorescent cells (plasma membrane permeabilization), C. albicans [3] | oxygen consumption of P. aeruginosa in presence of the substance [4] | increment in intracellular ATP (iATP) level compared to untreated control [5] | PI fluorescent cells (plasma membrane permeabilization), P. aeruginosa [6] | IC50 [7] [µM] | effect of high external K^+ on candidacidal activity [7] | effect of mitochondrial ATP synthase inhibition (oligomycin A) on candidacidal activity ([7]; cells pre-incubated 15 min, 37 °C with 16 μg/mL oligomycin A) | effect of respiration inhibition (piericidin A) on candidacidal activity [7, 12] | effect of Tok1p K^+ channel block (TEA^+) on candidacidal activity ([7]; cells pre-incubated 15 min with 10 mM TEA^+) | IC50 against C. albicans relative to IC50 of native hLf (fold greater) ([7]; vs hLf IC50 3 μM) [fold] | IC50 [8] [µM] | effect of high external K^+ on pseudomonacidal activity [8] | effect of respiration inhibition (piericidin A) on pseudomonacidal activity [8, 12] | K^+ efflux from C. albicans, in words [9] | K^+ efflux from P. aeruginosa, in words [10] | previously reported microbicidal concentration (organism not given) [11] [µM]
NLCRLCAGTGENKCA [Kdp15, 15-mer kaliocin-1-derived peptide containing the complete hLf γ-core] | approximately 0.5 pH units | equal to that of untreated (control) cells | not significantly increased | equal to that of untreated (control) cells | ~ 5 fold | not significantly increased | 100 | seemed to protect | less susceptible | less susceptible | less susceptible | ~33 | 3 | seemed to protect | less susceptible | – | – | –
TKCFQWQRNMRKVRGPPVSCIKR [Lfpep, antimicrobial hLf-derived peptide without a γ-core motif that permeabilizes bacterial and fungal cytoplasmic membranes, reference compound] | – | – | significant increase | – | – | significant increase | 20 | not modified | – | – | – | – | 0.5 | not modified | – | rapid and increased K^+ release | rapid and increased K^+ release | 50
